Measurements reported in patent publication US6737383B1, “Herbicidal oxadiazolidines” (priority 1999, dated 2004).

Tests used:
[1] = tested on: bedstraw; experiment: Test B pre/postemergence bedstraw; format: in vivo, Galium aparine
How it was run: (§1)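 Herbicidal effect was estimated by eye on a ten-point control scale after plants spent twelve to sixteen days in a greenhouse following soil or foliar treatment. Foliar sprays targeted plants at one to four leaves; all doses were formulated in a non-phytotoxic solvent with surfactant.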

[2] = tested on: blackgrass; experiment: Test B pre/postemergence blackgrass; format: in vivo, Alopecurus myosuroides
How it was run: as §1

[3] = tested on: surinam grass; experiment: Test B pre/postemergence surinam grass; format: in vivo, Brachiaria decumbens
How it was run: as §1

[4] = tested on: cocklebur; experiment: Test B pre/postemergence cocklebur; format: in vivo, Xanthium strumarium
How it was run: as §1

[5] = tested on: corn; experiment: Test B pre/postemergence corn; format: in vivo, Zea mays
How it was run: as §1

[6] = tested on: crabgrass; experiment: Test B pre/postemergence crabgrass; format: in vivo, Digitaria sanguinalis
How it was run: as §1

[7] = tested on: giant foxtail; experiment: Test B pre/postemergence giant foxtail; format: in vivo, Setaria faberii
How it was run: as §1

[8] = tested on: morningglory; experiment: Test B pre/postemergence morningglory; format: in vivo, Ipomoea hederacea
How it was run: as §1

[9] = tested on: pigweed; experiment: Test B pre/postemergence pigweed; format: in vivo, Amaranthus retroflexus
How it was run: as §1

[10] = tested on: rape; experiment: Test B pre/postemergence rape; format: in vivo, Brassica napus
How it was run: as §1

[11] = tested on: soybean; experiment: Test B pre/postemergence soybean; format: in vivo, Glycine max
How it was run: as §1

[12] = tested on: sugar beet; experiment: Test B pre/postemergence sugar beet; format: in vivo, Beta vulgaris
How it was run: as §1

[13] = tested on: velvetleaf; experiment: Test B pre/postemergence velvetleaf; format: in vivo, Abutilon theophrasti
How it was run: as §1

[14] = tested on: wheat; experiment: Test B pre/postemergence wheat; format: in vivo, Triticum aestivum
How it was run: as §1

[15] = tested on: wild oat; experiment: Test B pre/postemergence wild oat; format: in vivo, Avena fatua
How it was run: as §1

[16] = tested on: purple nutsedge; experiment: Test B pre/postemergence purple nutsedge; format: in vivo, Cyperus rotundus
How it was run: as §1

[17] = tested on: rice; experiment: Test B flood test rice; format: in vivo, Oryza sativa; details: Pre-emergence
How it was run: (§2)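 Read-out is a visual response score from 0 (no effect) to 10 (complete control), assigned by comparison with untreated controls. Treatment was applied at the 2-leaf stage, and plants stayed in the greenhouse for twelve to sixteen days before scoring.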

[18] = tested on: smallflower flatsedge; experiment: Test B flood test smallflower flatsedge; format: in vivo, Cyperus difformis; details: Pre-emergence
How it was run: as §2

[19] = tested on: duck salad; experiment: Test B flood test duck salad; format: in vivo, Heteranthera limosa; details: Pre-emergence
How it was run: as §2

[20] = tested on: bamyardgrass; experiment: Test B flood test barnyardgrass; format: in vivo, Echinochloa crus-galli; details: Pre-emergence
How it was run: as §2

[21] = Preemergence, Rate 31 g/ha, visual rating, scale 0 to 10 (0 no effect, 10 complete control)
[22] = Preemergence, Rate 62 g/ha, scale of 0 to 10 where 0 is no effect and 10 is complete control
[23] = Preemergence, Rate 250 g/ha, scale of 0 to 10 where 0 is no effect and 10 is complete control
[24] = Rate 31 g/ha, Postemergence, scale 0 to 10
[25] = Rate 62 g/ha, Postemergence, scale of 0 to 10 where 0 is no effect and 10 is complete control
[26] = Rate 125 g/ha, Postemergence, scale 0 to 10
[27] = Rate 125 g/ha, Preemergence, scale of 0 to 10 where 0 is no effect and 10 is complete control
[28] = Rate 1000 g/ha, scale 0 to 10 (0 no effect, 10 complete control)
[29] = Rate 125 g/ha, flood test species, scale 0 to 10 where 0 is no effect and 10 is complete control
[30] = Rate 250 g/ha, flood-test species, scale 0 to 10, 0 is no effect, 10 is complete control
[31] = Rate 500 g/ha, flood test species, scale 0 to 10 (0 no effect, 10 complete control)

CCOC(=O)C(C)N(C(=O)n1oc(=O)n(-c2c(C)cccc2C)c1=O)c1ccc(F)cc1 (stereo not drawn) [Compound 244]
0: Bedstraw plant response rating [1, 21] | Bedstraw plant response rating [1, 22] | Bedstraw plant response rating [1, 23] | Bedstraw plant response rating [1, 24] | Bedstraw plant response rating [1, 25] | Bedstraw plant response rating [1, 26] | Bedstraw plant response rating [1, 27] | Plant response rating (0 to 10; 0 is no effect, 10 is complete control), Bedstraw ([1]; Rate 250 g/ha, Postemergence) | Blackgrass plant response rating [2, 21] | Blackgrass plant response rating [2, 22] | Blackgrass plant response rating [2, 23] | Blackgrass plant response rating [2, 24] | Blackgrass plant response rating [2, 25] | Blackgrass plant response rating [2, 26] | Blackgrass plant response rating [2, 27] | Plant response rating (0 to 10; 0 is no effect, 10 is complete control), Blackgrass ([2]; Rate 250 g/ha, Postemergence) | B. signalgrass plant response rating [3, 21] | B. signalgrass plant response rating [3, 22] | B. signalgrass plant response rating [3, 23] | B. signalgrass plant response rating [3, 24] | B. signalgrass plant response rating [3, 25] | B. signalgrass plant response rating ([3]; Rate 125 g/ha, Postemergence, scale 0 (no effect) to 10 (complete control)) | B. signalgrass plant response rating [3, 27] | Plant response rating (0 to 10; 0 is no effect, 10 is complete control), B. signalgrass ([3]; Rate 250 g/ha, Postemergence) | Cocklebur plant response rating [4, 21] | Cocklebur plant response rating [4, 22] | Cocklebur plant response rating [4, 23] | Cocklebur plant response rating [4, 24] | Cocklebur plant response rating [4, 25] | Cocklebur plant response rating [4, 26] | Cocklebur plant response rating [4, 27] | Plant response rating (0 to 10; 0 is no effect, 10 is complete control), Cocklebur ([4]; Rate 250 g/ha, Postemergence) | Corn plant response rating [5, 21] | Corn plant response rating [5, 22] | Corn plant response rating [5, 23] | Corn plant response rating [5, 24] | Corn plant response rating [5, 25] | Corn plant response rating [5, 26] | Corn plant response rating [5, 27] | Plant response rating (0 to 10; 0 is no effect, 10 is complete control), Corn ([5]; Rate 250 g/ha, Postemergence) | Crabgrass plant response rating [6, 21] | Crabgrass plant response rating [6, 22] | Crabgrass plant response rating [6, 23] | Crabgrass plant response rating [6, 24] | Crabgrass plant response rating [6, 25] | Crabgrass plant response rating [6, 27] | Plant response rating (0 to 10; 0 is no effect, 10 is complete control), Crabgrass ([6]; Rate 250 g/ha, Postemergence) | Giant foxtail plant response rating [7, 21] | Giant foxtail plant response rating [7, 22] | Giant foxtail plant response rating [7, 23] | Giant foxtail plant response rating [7, 24] | Giant foxtail plant response rating [7, 25] | Giant foxtail plant response rating [7, 27] | Plant response rating (0 to 10; 0 is no effect, 10 is complete control), Giant foxtail ([7]; Rate 250 g/ha, Postemergence) | Morningglory plant response rating [8, 21] | Morningglory plant response rating [8, 22] | Morningglory plant response rating [8, 23] | Morningglory plant response rating [8, 24] | Morningglory plant response rating [8, 25] | Morningglory plant response rating [8, 27] | Plant response rating (0 to 10; 0 is no effect, 10 is complete control), Morningglory ([8]; Rate 250 g/ha, Postemergence) | Redroot pigweed plant response rating [9, 21] | Redroot pigweed plant response rating [9, 22] | Redroot pigweed plant response rating [9, 23] | Redroot pigweed plant response rating [9, 24] | Redroot pigweed plant response rating [9, 25] | Redroot pigweed plant response rating [9, 27] | Plant response rating (0 to 10; 0 is no effect, 10 is complete control), Redroot pigweed ([9]; Rate 250 g/ha, Postemergence) | Rape plant response rating [10, 21] | Rape plant response rating [10, 22] | Rape plant response rating [10, 23] | Rape plant response rating [10, 24] | Rape plant response rating [10, 25] | Rape plant response rating [10, 27] | Plant response rating (0 to 10; 0 is no effect, 10 is complete control), Rape ([10]; Rate 250 g/ha, Postemergence) | Soybean plant response rating [11, 21] | Soybean plant response rating [11, 22] | Soybean plant response rating [11, 23] | Soybean plant response rating [11, 25] | Soybean plant response rating [11, 27] | Sugarbeets plant response rating [12, 21] | Sugarbeets plant response rating [12, 22] | Sugarbeets plant response rating [12, 23] | Sugarbeets plant response rating [12, 25] | Sugarbeets plant response rating [12, 27] | Velvetleaf plant response rating [13, 21] | Velvetleaf plant response rating [13, 22] | Velvetleaf plant response rating [13, 23] | Velvetleaf plant response rating [13, 25] | Velvetleaf plant response rating [13, 27] | Wheat plant response rating [14, 21] | Wheat plant response rating [14, 22] | Wheat plant response rating [14, 23] | Wheat plant response rating [14, 25] | Wheat plant response rating [14, 27] | Wild oats plant response rating [15, 21] | Wild oats plant response rating [15, 22] | Wild oats plant response rating [15, 23] | Wild oats plant response rating [15, 25] | Wild oats plant response rating [15, 27] | Nutsedge plant response rating [16, 21] | Nutsedge plant response rating [16, 22] | Nutsedge plant response rating [16, 23] | Nutsedge plant response rating [16, 24] | Nutsedge plant response rating [16, 25] | Nutsedge plant response rating [16, 27] | Plant response rating (0 to 10; 0 is no effect, 10 is complete control), Nutsedge ([16]; Rate 250 g/ha, Postemergence) | Rice plant response rating [17, 28] | Rice plant response rating [17, 29] | Rice plant response rating [17, 30] | Rice plant response rating [17, 31] | S. Flatsedge plant response rating [18, 28] | S. Flatsedge plant response rating [18, 29] | S. Flatsedge plant response rating [18, 30] | S. Flatsedge plant response rating [18, 31] | Ducksalad plant response rating [19, 28] | Ducksalad plant response rating [19, 29] | Ducksalad plant response rating [19, 30] | Ducksalad plant response rating [19, 31] | Barnyardgrass plant response rating [20, 28] | Barnyardgrass plant response rating [20, 29] | Barnyardgrass plant response rating [20, 30] | Barnyardgrass plant response rating [20, 31]
